In ChEMBL document CHEMBL4390694, “Benzofuran-isatin hybrids tethered via different length alkyl linkers and their in vitro anti-mycobacterial activities” (Bioorg Med Chem, 2019):
In brackets after ≈: the same amount, converted by molar mass.

Experiments:
[1] = tested on: Mycobacterium tuberculosis; test: Antimycobacterial activity against drug-susceptible Mycobacterium tuberculosis H37Rv assessed as complete inhibition of bacterial growth incubated for 7 days by rapid direct susceptibility test; assay type: functional; conditions: 168 h
[2] = Cytotoxicity against African green monkey Vero cells assessed as decrease in cell viability after 72 hrs by MTT assay; assay type: cell-based; conditions: chlorocebus sabaeus
[3] = Selectivity index, ratio of CC50 for cytotoxicity against African green monkey Vero cells to MIC for antimycobacterial activity against drug-susceptible Mycobacterium tuberculosis H37Rv; assay type: toxicity, cell-based; conditions: read-out: Selectivity Index
[4] = Metabolic stability in mouse liver microsomes assessed as half life; assay type: ADME, Microsome
[5] = Cmax in ICR mouse at 25 mg/kg, po administered as single dose and measured up to 24 hrs post dose; assay type: ADME, organism-based; design: dose 25 mg/kg, route oral; conditions: in vivo
[6] = Elimination half life in ICR mouse at 25 mg/kg, po administered as single dose and measured up to 24 hrs post dose; assay type: ADME, organism-based; conditions: in vivo, read-out: beta t1/2 (converted)
[7] = Tmax in ICR mouse at 25 mg/kg, po administered as single dose and measured up to 24 hrs post dose; assay type: ADME, organism-based; conditions: in vivo
[8] = AUC (0 to infinity) in ICR mouse at 25 mg/kg, po administered as single dose and measured up to 24 hrs post dose; assay type: ADME, organism-based; design: dose 25 mg/kg, time infinity, route oral; conditions: in vivo

SMILES	MIC [1] [µg/mL]	CC50 at 72 h [2] [µM]	selectivity ratio [3]	half-life [4] [h]	Cmax [5] [ng/mL]	half-life [6] [h]	Tmax [7] [h]	AUC(0-inf) [8] [ng·h/mL]
CCOC(=O)c1c(-c2ccc(F)cc2)oc2ccc(OCCCCCCN3C(=O)C(=O)c4cc(F)ccc43)cc12	0.25 (≈ 0.457 µM)	512	2048					
CNC(=O)c1c(-c2ccc(O)cc2)oc2ccc(O)c(CN3CCCCC3)c12	< 0.06	> 1020	> 16400	> 1	6830	8.59	3.12	31800
CCOC(=O)c1c(-c2ccc(OC)cc2)oc2ccc(OCCCCCN3C(=O)C(=O)c4cc(F)ccc43)cc12	0.25 (≈ 0.458 µM)	128	512					
CCOC(=O)c1c(-c2ccc(F)cc2)oc2ccc(OCCCCCN3C(=O)C(=O)c4cc(OC)ccc43)cc12	0.5 (≈ 0.916 µM)	128	256					
CCOC(=O)c1c(-c2ccccc2)oc2ccc(OCCCN3C(=O)C(=O)c4cc(OC)ccc43)cc12	0.25 (≈ 0.5 µM)	256	1024					
CCOC(=O)c1c(-c2ccc(OC)cc2)oc2ccc(OCCCN3C(=O)C(=O)c4cc(F)ccc43)cc12	0.5 (≈ 0.966 µM)	256	512					
CCOC(=O)c1c(-c2ccc(OC)cc2)oc2ccc(OCCCN3C(=O)C(=O)c4ccccc43)cc12	1 (≈ 2 µM)	64	64					
CCOC(=O)c1c(-c2ccc(F)cc2)oc2ccc(OCCCN3C(=O)C(=O)c4ccccc43)cc12	2 (≈ 4.1 µM)	256	128					
CCOC(=O)c1c(-c2ccc(OC)cc2)oc2ccc(OCCCCN3C(=O)C(=O)c4cc(OC)ccc43)cc12	2 (≈ 3.68 µM)	64	32					
CCOC(=O)c1c(-c2ccc(OC)cc2)oc2ccc(OCCCCCCN3C(=O)C(=O)c4ccccc43)cc12	0.25 (≈ 0.462 µM)	256	1024					
CCOC(=O)c1c(-c2ccc(OC)cc2)oc2ccc(OCCCCCCN3C(=O)C(=O)c4cc(F)ccc43)cc12	0.125 (≈ 0.223 µM)	128	1024	0.527	1220	2.48	1.76	3680
CCOC(=O)c1c(-c2ccc(OC)cc2)oc2ccc(OCCCCN3C(=O)C(=O)c4ccccc43)cc12	0.5 (≈ 0.974 µM)	> 1020	> 2048					
CCOC(=O)c1c(-c2ccc(F)cc2)oc2ccc(OCCCN3C(=O)C(=O)c4cc(F)ccc43)cc12	1 (≈ 1.98 µM)	512	512					
CCOC(=O)c1c(-c2ccc(F)cc2)oc2ccc(OCCCN3C(=O)C(=O)c4cc(OC)ccc43)cc12	1 (≈ 1.93 µM)	128	128					
NNC(=O)c1ccncc1 [ISONIAZID]	0.06 (≈ 0.438 µM)							
CO[C@H]1/C=C/O[C@@]2(C)Oc3c(C)c(O)c4c(O)c(c(/C=N/N5CCN(C)CC5)c(O)c4c3C2=O)NC(=O)/C(C)=C\C=C\[C@H](C)[C@H](O)[C@@H](C)[C@@H](O)[C@@H](C)[C@H](OC(C)=O)[C@@H]1C [RIFAMPIN]	0.5 (≈ 0.608 µM)							
